Data from patent publication US20240041878A1, “APELIN RECEPTOR MODULATORS FOR TREATMENT OF A DISORDER OR DISEASE ASSOCIATED WITH BBB PERMEABILITY” (BioAge Labs, Inc., priority 2022, published 2024).

Key:
[1] = test system: aged mice with TBI; assay: Traumatic brain injury (TBI) model in aged mice, controlled cortical impact; type: in vivo, mouse; details: given orally before and/or after controlled cortical impact
Text: This study assessed the effects of BGE-105 on mitigating the effects of CNS damage and inflammation, and accelerating functional recovery, in a mouse model of TBI.
BGE-105 is given orally to aged mice at various potential doses for a period of time before and/or after controlled cortical impact (model of TBI in mice); during the experimental period, mice undergo various behavioral assessments to understand whether BGE-105 treatment affected motor and cognitive functions known to be impaired by TBI. After, the brains of mice are analyzed for neuroinflammatory markers by a variety of histological and biochemical methods

[2] = test system: 26-month-old female C57BL/6 mice; assay: Age-dependent BBB permeability model, Evans blue assay; type: in vivo, mouse; details: 50 mg/kg BID P.O. one week; aged versus aged+BGE-105; p<0.01
Description: The mice were handled in accordance with principles and guidelines established by the “Guide for the Care and Use of Laboratory Animals” and overseen by the BioAge Lab's institutional animal care and use committee (IACUC). Mice were housed conventionally in a constant temperature (20-22° C.) and humidity (40%-60%) animal room with a 12/12 h light/dark cycle and free access to food and water.
For assessment of BGE-105 activity, the age-dependent BBB permeability model was established using 26-month-old female C57BL/6 mice. Mice were randomized based on the body weight and body condition scores to two groups (vehicle or BGE-105, n=8). Mice were administered P.O. vehicle (Control) or BGE-105 via P.O. at 50 mg/kg (BID) for one week (7 days). See FIG. 4B for a schematic of the protocol. The BBB permeability was measured via Evans blue assay. Mice were intravenously injected with Evans Blue (2%, 75 ul/30 g BW). […]
Frozen olfactory bulb and hippocampus were placed in 200 μl of extraction buffer (50% trichloroacetic acid in formamide) for 24 hours. […] Endpoint fluorescence was recorded (620 nm excitation, 680 nm emission) with a SpectraMax iD5 (Molecular Devices), normalized to tissue weight, and relative treatment-related change in fluorescence (a measure of blood-brain barrier leakage) was calculated compared to untreated aged mice.

[3] = test system: Mouse astrocyte cells; assay: CXCL1 and IL-6 ELISA of astrocyte culture media after RAC treatment; type: cell-based; details: RAC+BGE-105 250 nM
[4] = test system: human patient, iPSC-derived neurons; assay: Neurons from patient derived induced pluripotent stem cells (iPSCs); type: cell-based; details: compared to cells not treated with BGE-105
Text: This study assesses the effect of BGE-105 (or media from other brain cells exposed to BGE-105, such as microglia and astrocytes) in human patient, iPSC-derived neurons improves a variety of functions associated with beneficial neuronal outcomes, including those listed below • i. proliferation and survival • ii. Autophagy • iii. synaptic plasticity • iv. ROS production

[5] = test system: Embryonic rat neurons; assay: Neuronal survival after RAC-conditioned media (ApoTox-Glo Triplex Assay); type: cell-based
Text: Mice were handled in accordance with principles and guidelines established by the “Guide for the Care and Use of Laboratory Animals” and overseen by the BioAge Lab's Institutional Animal Care and Use Committee (IACUC). Mouse primary astrocytes were isolated and cultured in 0.01% poly-L-lysine coated 6- or 12-well tissue culture plates at 200,000 or 120,000 cells/well, respectively, with astrocyte growth media as previously described in (Lundquist et al. 2022. Knockdown of Astrocytic Monocarboxylate Transporter 4 in the Motor Cortex Leads to Loss of Dendritic Spines and a Deficit in Motor Learning. Mol Neurobiol 59, 1002-1017). Embryonic rat neurons were purchased from ScienCell (Cat. #R1550) and cultured in neuronal media (ScienCell, Cat. #1521) per manufacturer's protocol, with slight modifications. Briefly, neurons were thawed and resuspended in neuronal media with the addition of 1 μg laminin (Sigma, Cat. #L2020) per 1 mL culture media, then plated in 0.01% poly-L-lysine coated 96-well tissue culture plates at 60,000 cells/well. […]
For analysis of neuronal survival, culture media was collected after RAC treatment and added directly to rat neurons (previously described above) for 24 hours. After exposure, neuronal viability was assessed with the ApoTox-Glo Triplex Assay according to manufacturer's protocol (Promega, Cat. #G6320). […]

COc1cccc(OC)c1-n1c(NS(=O)(=O)[C@@H](C)[C@H](C)c2ncc(C)cn2)nnc1-c1cncc(C)c1 [BGE-105, (2S,3R)—N-(4-(2,6-dimethoxyphenyl)-5-(5-methyl-3-pyridinyl)-4H-1,2,4-triazol-3-yl)-3-(5-methyl-2-pyrimidinyl)-2-butanesulfonamide]
neuroinflammatory markers and neuro-inflammation [1]: decrease of neuroinflammatory markers | change of age-induced increase in BBB permeability in the OB [2]: −28% | CXCL1 concentration/release (FIG. 12) [3]: 20000 to 40000 pg/mL | IL-6 concentration/release (FIG. 12) [3]: about 10000 pg/ml | survival, differentiation and cellular functioning of stem-cell-derived neurons [4]: improves overall survival, differentiation, and cellular functioning | cell viability relative to RAC, exogenous BGE-105 ([5]; RAC+ex105 [50 nM], added directly to neurons in addition to the toxic RAC media): did not provide statistical change | increase of cellular viability as compared to RAC ([5]; media of astrocytes treated with RAC+BGE105 [250 nM], added to neurons 24 hours): about 30%
